The values that follow come from US20160002204A1 (Board of Regents, The University of Texas System, priority 2014, published 2016).

Bounds are passed on as bounds.

The target of test [1] is T1, GLS1 (purified recombinant human GAC) (Homo sapiens, UniProt O94925).
T1 sequence (O94925 55-598 isoform O94925-3 limits assumed): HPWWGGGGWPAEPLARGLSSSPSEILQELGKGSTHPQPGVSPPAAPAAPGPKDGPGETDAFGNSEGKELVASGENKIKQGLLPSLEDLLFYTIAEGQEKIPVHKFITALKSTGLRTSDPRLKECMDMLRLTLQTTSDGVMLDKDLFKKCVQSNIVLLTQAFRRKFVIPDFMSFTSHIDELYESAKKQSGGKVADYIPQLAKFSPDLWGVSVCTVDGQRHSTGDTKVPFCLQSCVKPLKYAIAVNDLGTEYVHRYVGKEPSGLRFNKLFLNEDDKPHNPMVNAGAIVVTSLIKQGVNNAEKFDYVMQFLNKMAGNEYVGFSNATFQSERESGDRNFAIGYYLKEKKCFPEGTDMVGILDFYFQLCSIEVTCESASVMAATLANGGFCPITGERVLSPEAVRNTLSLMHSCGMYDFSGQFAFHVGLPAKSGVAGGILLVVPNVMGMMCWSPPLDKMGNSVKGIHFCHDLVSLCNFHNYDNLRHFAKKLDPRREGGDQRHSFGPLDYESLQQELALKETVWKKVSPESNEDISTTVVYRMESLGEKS
The experiment in a line: GLS1 enzymatic activity assay (dual-coupled, Amplex UltraRed/resorufin). Format: biochemical. Summed up: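 In this coupled fluorometric format, phosphate-activated GAC (2 nM, 50 mM phosphate) is pre-exposed to compound for 10 min before 1 mM glutamine addition. Product is tracked as resorufin (530/590 nm) over time or at 20 min, and potency is derived by logistic fitting.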

The subject of test [2] is A549 cells. The test is described as follows: A549 proliferation (viability) assay, Cell Titer Fluor, 72 hours. Format: cell-based. As to conditions: Homo sapiens. In outline: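 A549 cells in RPMI 1640 with 10% dialyzed FBS were seeded at 1000 cells/well, grown 24 h, then exposed to compound (0.5% DMSO final) for 72 h at 37 °C, 5% CO2. Viability was read by Cell Titer Fluor fluorescence; EC50 from four-parameter logistic fit.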

As for `Cc1ccc(CNC(=O)c2cn(CC(F)CCn3ccc(NC(=O)CC4CCOCC4)cc3=O)nn2)cn1` (stereo not shown) [Example 197, 1-(2-fluoro-4-{4-[2-(oxan-4-yl)acetamido]-2-oxo-1,2-dihydropyridin-1-yl}butyl)-N-[(6-methylpyridin-3-yl)methyl]-1H-1,2,3-triazole-4-carboxamide], the IC50 (as a rule, the concentration that gives 50% inhibition) in test [1] is under 100 nM. Besides, in test [2], the half-maximal effective concentration (EC50) (in general, the concentration at which the effect is half-maximal) fell in the range of 500 to 5000 nM.
The matching figures for `Cc1ccc(CNC(=O)c2cn(C[C@@H](F)CCn3ccc(NC(=O)Cc4ccccc4)c(F)c3=O)nn2)cn1` [Example 124, (S)-1-(2-fluoro-4-(3-fluoro-2-oxo-4-(2-phenylacetamido)pyridin-1(2H)-yl)butyl)-N-((6-methylpyridin-3-yl)methyl)-1H-1,2,3-triazole-4-carboxamide]: 100 to 500 nM and 500 to 5000 nM.
As to `O=C(CN1CCCCC1)Nc1ccn(CCCCc2nnc(C(=O)NCc3cc(C(F)(F)F)ccn3)s2)c(=O)c1F` [Example 467, 5-(4-{3-fluoro-2-oxo-4-[2-(piperidin-1-yl)acetamido]-1,2-dihydropyridin-1-yl}butyl)-N-{[4-(trifluoromethyl)pyridin-2-yl]methyl}-1,3,4-thiadiazole-2-carboxamide], the IC50 in test [1] was under 100 nM. In addition, the EC50 in test [2] lay in the range of 100 to 500 nM.
The matching figures for `O=C(CC1CCCC1)Nc1ccn(CCCCc2nnc(NC(=O)NCc3ccccn3)s2)c(=O)c1F` [Example 131, 2-cyclopentyl-N-(3-fluoro-2-oxo-1-(4-(5-(3-(pyridin-2-ylmethyl)ureido)-1,3,4-thiadiazol-2-yl)butyl)-1,2-dihydropyridin-4-yl)acetamide]: under 100 nM and 500 to 5000 nM.
As to `O=C(Cc1ccccc1)Nc1ccn(CC(F)CCn2cc(C(=O)NCc3ncccc3F)nn2)c(=O)c1` (stereo not shown) [Example 149, 1-{3-fluoro-4-[2-oxo-4-(2-phenylacetamido)-1,2-dihydropyridin-1-yl]butyl}-N-[(3-fluoropyridin-2-yl)methyl]-1H-1,2,3-triazole-4-carboxamide], the IC50 in test [1] was in the range of 100 to 500 nM. Moreover, the EC50 in test [2] is 500 to 5000 nM.
